Our source for the IC50 and EC30 values is US9776972B2, “Pyrazole derivatives as arginine methyltransferase inhibitors and uses thereof” (priority 2013, dated 2017).

One assay concerns the target human PRMT8 (Homo sapiens, UniProt Q9NR22). Nature of the assay: PRMT8 Biochemical Assay (3H-SAM Flashplate, peptide substrate). The following applies: single experiment or average of multiple experiments. The text has this:
S-adenosylmethionine (SAM), S-adenosylhomocysteine (SAH), bicine, Tween20, dimethylsulfoxide (DMSO), bovine skin gelatin (BSG), isopropyl-β-D-thiogalactopyranoside (IPTG), and Tris(2-carboxyethyl)phosphine hydrochloride solution (TCEP) were purchased from Sigma-Aldrich at the highest level of purity possible. ^3H-SAM was purchase from American Radiolabeled Chemicals with a specific activity of 80 Ci/mmol. 384-well streptavidin Flashplates were purchased from PerkinElmer.
Peptide representative of human histone H4 residues 31-45 was synthesized with an N-terminal linker-affinity tag motif and a C-terminal amide cap by 21st Century Biochemicals.
E. coli (BL21(DE3) Gold, Stratagene) made competent by the CaCl2 method were transformed with the PRMT8 construct and ampicillin selection. Protein over-expression was accomplished by growing the PRMT8 expressing E. coli clone and inducing expression with 0.3 mM IPTG at 16° C. The culture was grown for 12 hours, harvested by centrifugation, and stored at −80° C. for purification.
GST-tagged PRMT8 was eluted with 50 mM Tris, 2 mM glutathione, pH 7.8. Pooled fractions were cleaved by thrombin (10 U) and dialysed in buffer A. GST was removed by reloading the cleaved protein sample onto glutathione sepharose column and PRMT8 was collected in the flow-through fractions. PRMT8 was purified further by ceramic hydroxyapatite chromatography. The column was washed with 50 mM phosphate buffer, 100 mM NaCl, 5% glycerol, 5 mM β-mercaptoethanol, pH 7.8 and PRMT8 was eluted by 100 mM phosphate in the same buffer. Protein was concentrated and buffer was exchanged to 50 mM Tris, 300 mM NaCl, 10% glycerol, 5 mM β-mercaptoethanol, pH 7.8 by ultrafiltration.
General Procedure for PRMT8 Enzyme Assays on Peptide Substrates.
(§1) The assays were all performed in a buffer consisting of 20 mM Bicine (pH=7.6), 1 mM TCEP, 0.005% BSG, and 0.002% Tween 20, prepared on the day of use. […] DMSO (1 ul) was added to Columns 11, 12, 23, 24, rows A-H for the maximum signal control and 1 ul of SAH, a known product and inhibitor of PRMT8, was added to columns 11, 12, 23, 24, rows I-P for the minimum signal control. A cocktail (40 ul) containing the PRMT8 enzyme was added by Multidrop Combi (Thermo-Fisher). The compounds were allowed to incubate with PRMT8 for 30 min at room temperature, then a cocktail (10 ul) containing ^3H-SAM and peptide was added to initiate the reaction (final volume=51 ul). […] The assays were stopped by the addition of non-radiolabeled SAM (10 ul) to a final concentration of 400 uM, which dilutes the ^3H-SAM to a level where its incorporation into the peptide substrate is no longer detectable. 50 ul of the reaction in the 384-well polypropylene plate was then transferred to a 384-well Flashplate and the biotinylated peptides were allowed to bind to the streptavidin surface for at least 1 hour before being washed once with 0.1% Tween20 in a Biotek ELx405 plate washer. The plates were then read in a PerkinElmer TopCount plate reader to measure the quantity of ^3H-labeled peptide bound to the Flashplate surface, measured as disintegrations per minute (dpm) or alternatively, referred to as counts per minute (cpm).
(§2) Where dpm=disintegrations per minute, cmpd=signal in assay well, and min and max are the respective minimum and maximum signal controls.
(§3) Where top and bottom are the normally allowed to float, but may be fixed at 100 or 0 respectively in a 3-parameter fit. The Hill Coefficient normally allowed to float but may also be fixed at 1 in a 3-parameter fit. Y is the % inhibition and X is the compound concentration.

A further assay addresses T1, human PRMT6 (Homo sapiens, UniProt Q96LA8).
T1 construct: Flag-PRMT6-His; made in house; host or cells: HEK 293F cells (BacMam baculovirus)
Description: PRMT6 Biochemical Assay (3H-SAM Flashplate, peptide substrate). The settings on record: Biochemical IC50 PRMT6, single experiment or average of multiple experiments.
Text: S-adenosylmethionine (SAM), S-adenosylhomocysteine (SAH), bicine, Tween20, dimethylsulfoxide (DMSO), bovine skin gelatin (BSG), sodium butyrate and Tris(2-carboxyethyl)phosphine hydrochloride solution (TCEP) were purchased from Sigma-Aldrich at the highest level of purity possible. ^3H-SAM was purchase from American Radiolabeled Chemicals with a specific activity of 80 Ci/mmol. 384-well streptavidin Flashplates were purchased from PerkinElmer.
Peptide representative of human histone H4 residues 36-50 was synthesized with an N-terminal linker-affinity tag motif and a C-terminal amide cap by 21st Century Biochemicals.
The amplified gene was subcloned into pFastBacMam (Viva Biotech).
Recombinant baculovirus were generated according to Bac-to-Bac kit instructions (Life Technologies). […] Infections were carried out at 37° C. for 48 hours, harvested by centrifugation, and stored at −80° C. for purification.
Column was washed with 20 mM imidazole in the same buffer and Flag-PRMT6-His was eluted with 150 mM imidazole. […] Flag-PRMT6-His was eluted with 200 ug/ml FLAG peptide in the same buffer. Pooled fractions were dialysed in 20 mM Tris, 150 mM NaCl, 10% glycerol and 5 mM β-mercaptoethanol, pH 7.8.
General Procedure for PRMT6 Enzyme Assays on Peptide Substrates.
as §1, with “of PRMT6,” for “of PRMT8,”, “the PRMT6” for “the PRMT8”, “with PRMT6” for “with PRMT8”, “containing SAM” for “containing ^3H-SAM”
as §2, §3

In a further assay the target is T2, human PRMT1 (Homo sapiens, UniProt Q99873).
T2 construct: GST-tagged PRMT1; made in house; host or cells: High Five insect cells (baculovirus)
Nature of the assay: PRMT1 Biochemical Assay (3H-SAM Flashplate, peptide substrate). The settings on record: single experiment or average of multiple experiments.
Text: S-adenosylmethionine (SAM), S-adenosylhomocysteine (SAH), bicine, Tween20, dimethylsulfoxide (DMSO), bovine skin gelatin (BSG), and Tris(2-carboxyethyl)phosphine hydrochloride solution (TCEP) were purchased from Sigma-Aldrich at the highest level of purity possible. ^3H-SAM was purchase from American Radiolabeled Chemicals with a specific activity of 80 Ci/mmol. 384-well streptavidin Flashplates were purchased from PerkinElmer.
Recombinant baculovirus were generated according to Bac-to-Bac kit instructions (Life Technologies). […] Infections were carried out at 27° C. for 48 hours, harvested by centrifugation, and stored at −80° C. for purification.
GST-tagged PRMT1 was eluted with 50 mM Tris, 2 mM glutathione, pH 7.8, dialysed in buffer A and concentrated to 1 mg/mL.
General Procedure for PRMT1 Enzyme Assays on Peptide Substrates.
as §1, with “of PRMT1,” for “of PRMT8,”, “the PRMT1” for “the PRMT8”, “with PRMT1” for “with PRMT8”, “containing SAM” for “containing ^3H-SAM”, “of 300” for “of 400”
as §2, §3

Assay [1] deals with mono-methyl arginine in RKO cells. Description: RKO Methylation Assay, In Cell Western (ICW) for mono-methyl arginine and DNA content. It counts as cell-based. The following applies: Homo sapiens, RKO, 72 h, read-out: EC30 (In Cell Western data, Numerical, μM). From the text: RKO adherent cells were purchased from ATCC (American Type Culture Collection), Manassas, Va., USA. DMEM/Glutamax medium, penicillin-streptomycin, heat inactivated fetal bovine serum, 0.05% trypsin and D-PBS were purchased from Life Technologies, Grand Island, N.Y., USA. Odyssey blocking buffer, 800CW goat anti-rabbit IgG (H+L) antibody, and Licor Odyssey infrared scanner were purchased from Licor Biosciences, Lincoln, Nebr., USA. Mono-methyl arginine antibody was purchased from Cell Signaling Technology, Danvers, Mass., USA. Methanol was purchased from VWR, Franklin, Mass., USA. 10% Tween 20 was purchased from KPL, Inc., Gaithersburg, Md., USA. DRAQ5 was purchased from Biostatus Limited, Leicestershire, UK.
RKO adherent cells were maintained in growth medium (DMEM/Glutamax medium supplemented with 10% v/v heat inactivated fetal bovine serum and 100 units/mL penicillin-streptomycin) and cultured at 37° C. under 5% CO2.
Cell Treatment, in Cell Western (ICW) for Detection of Mono-Methyl Arginine and DNA Content.
RKO cells were seeded in assay medium at a concentration of 20,000 cells per mL to a poly-D-lysine coated 384 well culture plate (BD Biosciences 356697) with 50 μL per well. Compound (100 nL) from a 96-well source plate was added directly to 384 well cell plate. Plates were incubated at 37° C., 5% CO2 for 72 hours. After three days of incubation, plates were brought to room temperature outside of the incubator for ten minutes and blotted on paper towels to remove cell media. 50 μL of ice cold 100% methanol was added directly to each well and incubated for 30 min at room temperature. After 30 min, plates were transferred to a Biotek EL406 plate washer and washed 2 times with 100 μL per well of wash buffer (1×PBS). Next 60 μL per well of Odyssey blocking buffer (Odyssey Buffer with 0.1% Tween 20 (v/v)) were added to each plate and incubated 1 hour at room temperature. Blocking buffer was removed and 20 μL per well of primary antibody was added (mono-methyl arginine diluted 1:200 in Odyssey buffer with 0.1% Tween 20 (v/v)) and plates were incubated overnight (16 hours) at 4° C. Plates were washed 5 times with 100 μL per well of wash buffer. Next 20 μL per well of secondary antibody was added (1:200 800CW goat anti-rabbit IgG (H+L) antibody, 1:1000 DRAQ5 (Biostatus limited) in Odyssey buffer with 0.1% Tween 20 (v/v)) and incubated for 1 hour at room temperature. The plates were washed 5 times with 100 μL per well wash buffer then 2 times with 100 μL per well of water. Plates were allowed to dry at room temperature then imaged on the Licor Odyssey machine which measures integrated intensity at 700 nm and 800 nm wavelengths. Both 700 and 800 channels were scanned.
First, the ratio for each well was determined by:
Each plate included fourteen control wells of DMSO only treatment (minimum activation) as well as fourteen control wells for maximum activation treated with 20 μM of a reference compound. The average of the ratio values for each control type was calculated and used to determine the percent activation for each test well in the plate. Reference compound was serially diluted three-fold in DMSO for a total of nine test concentrations, beginning at 20 μM. Percent activation was determined and EC30 curves were generated using triplicate wells per concentration of compound.

T1 sequence (Q96LA8 with tags, fused parts or gaps): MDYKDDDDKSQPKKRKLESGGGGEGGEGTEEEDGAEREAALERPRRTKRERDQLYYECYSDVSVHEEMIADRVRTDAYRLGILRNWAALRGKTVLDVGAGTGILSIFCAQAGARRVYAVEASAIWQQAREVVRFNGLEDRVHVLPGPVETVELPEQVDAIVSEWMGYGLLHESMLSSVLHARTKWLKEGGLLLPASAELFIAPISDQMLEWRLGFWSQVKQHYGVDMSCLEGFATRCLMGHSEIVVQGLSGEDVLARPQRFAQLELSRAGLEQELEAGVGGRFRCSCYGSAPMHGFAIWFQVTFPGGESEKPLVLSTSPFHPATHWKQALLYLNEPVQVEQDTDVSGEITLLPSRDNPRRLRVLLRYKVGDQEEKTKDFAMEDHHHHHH
human PRMT8, sequence (Q9NR22 whole entry): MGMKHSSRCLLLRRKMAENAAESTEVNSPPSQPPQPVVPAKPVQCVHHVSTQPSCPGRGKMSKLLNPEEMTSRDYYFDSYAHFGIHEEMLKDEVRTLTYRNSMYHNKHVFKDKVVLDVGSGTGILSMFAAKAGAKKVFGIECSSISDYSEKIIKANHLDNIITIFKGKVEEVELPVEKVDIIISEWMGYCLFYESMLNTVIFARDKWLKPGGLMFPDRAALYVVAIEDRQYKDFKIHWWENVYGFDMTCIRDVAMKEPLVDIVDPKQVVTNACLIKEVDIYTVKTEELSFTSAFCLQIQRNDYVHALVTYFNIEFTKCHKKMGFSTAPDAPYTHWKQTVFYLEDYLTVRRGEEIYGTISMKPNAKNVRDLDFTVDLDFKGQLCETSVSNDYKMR
T2 sequence (Q99873 with tags, fused parts or gaps): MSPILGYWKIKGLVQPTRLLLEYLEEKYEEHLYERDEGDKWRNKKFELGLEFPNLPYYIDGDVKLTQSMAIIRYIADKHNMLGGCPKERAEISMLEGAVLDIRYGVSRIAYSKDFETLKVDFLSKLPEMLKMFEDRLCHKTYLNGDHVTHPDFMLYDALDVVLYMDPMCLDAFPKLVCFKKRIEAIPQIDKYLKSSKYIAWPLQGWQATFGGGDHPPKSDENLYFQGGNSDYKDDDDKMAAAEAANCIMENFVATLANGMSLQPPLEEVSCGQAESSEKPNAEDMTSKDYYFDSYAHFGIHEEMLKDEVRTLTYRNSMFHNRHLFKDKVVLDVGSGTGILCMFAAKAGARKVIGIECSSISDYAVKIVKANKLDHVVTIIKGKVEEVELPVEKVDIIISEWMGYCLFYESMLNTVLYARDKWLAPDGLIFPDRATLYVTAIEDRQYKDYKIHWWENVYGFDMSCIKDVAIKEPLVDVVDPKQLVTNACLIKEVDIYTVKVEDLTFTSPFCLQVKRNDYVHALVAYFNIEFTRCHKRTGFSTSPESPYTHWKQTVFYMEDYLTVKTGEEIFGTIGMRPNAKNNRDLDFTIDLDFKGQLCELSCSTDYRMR

On to `CNCCN(C)Cc1c[nH]nc1-c1ccccc1Oc1ccccc1` [Compound 36], for which the IC50 came out at 22400 nM against human PRMT8 and 2440 nM against human PRMT6.

Take `CC(C)CC(=O)N1CCN(c2ccc(-c3n[nH]cc3CN(C)CCN)cc2)CC1` [Compound 180]: the IC50 was 648 nM against human PRMT1, 5790 nM against human PRMT8 and 20.5 nM against human PRMT6.

On to `CNCCN(C)Cc1c[nH]nc1-c1cccc(OC)c1OC` [Compound 54], for which the IC50 at human PRMT1 worked out at 569 nM; at human PRMT8, 7500 nM; at human PRMT6, 182 nM.

For `CNCCN(C)Cc1c[nH]nc1-c1ccc(Oc2cccc(C(=O)NC)c2)cc1` [Compound 263], the values for the IC50 against human PRMT1 and at human PRMT6 were 4.35 nM and 1.92 nM, respectively. The EC30 in assay [1] was determined as 1.29 µM.

For `CNCCN(C)Cc1c[nH]nc1-c1ccccc1OC(F)(F)F` [Compound 40], the IC50 is 700 nM on human PRMT1, 6760 nM against human PRMT8 and 680 nM against human PRMT6.

For the compound `CNCCN(C)Cc1c[nH]nc1-c1cc(Cl)ccc1OC` [Compound 53], the IC50 on human PRMT1 turned out to be 3160 nM; on human PRMT8, 12800 nM; against human PRMT6, 968 nM.

On to `CN(CCNC1CC1)Cc1c[nH]nc1-c1ccc(C#N)cc1` [Compound 183], for which the IC50 on human PRMT1 was found to be 2420 nM; on human PRMT8 it was 4820 nM; at human PRMT6, 260 nM.

For `CN(CCN)Cc1c[nH]nc1-c1cc(F)ccc1Cl` [Compound 106], the figures for the IC50 against human PRMT1, at human PRMT8 and on human PRMT6 were 336 nM, 3110 nM and 49.8 nM, respectively.

For the compound `CN(CCN)Cc1cnn(CC(O)CO)c1-c1ccc(F)cc1` (centres unmarked) [Compound 113], the IC50 was 1490 nM at human PRMT1, 8520 nM against human PRMT8 and 594 nM against human PRMT6.

With `CCNCCN(C)Cc1c[nH]nc1-c1ccc(F)cc1` [Compound 60], the IC50 against human PRMT1 stood at 170 nM; on human PRMT8, 1540 nM; against human PRMT6, 53.2 nM.

Broadly, the IC50 is the concentration that inhibits the measured activity by half. Low readings indicate greater potency in that assay, high ones weaker potency in that assay. By EC30 is commonly meant the point of the concentration-response curve where the effect stands at 30%.
